Laboratory results published in patent US8450243B2, “Herbicidal quinoline and 1,8-naphthyridine compounds” (Syngenta Limited, priority 2009, dated 2013).

How the values were obtained:
Format in all cases: in vivo
[1] = system: Amaranthus retoflexus (AMARE); assay: Herbicidal glasshouse test, pre-emergence; details: PRE Application, evaluated after 13 days; for pest or weed control at 250 g/ha: Amaranthus retroflexus, pre-emergence, 312 h, read-out: damage to plant (100=total damage to plant; 0=no damage to plant); for damage to plant (100=total damage to plant; 0=no damage to plant): 250 g/ha
Experimental: (§1) Seeds of a variety of test species were sown in standard soil in pots (Alopecurus myosuroides (ALOMY), Setaria faberi (SETFA), Echinochloa crus-galli (ECHCG), Abuthilon theophrasti (ABUTH) and Amaranthus retoflexus (AMARE)). After cultivation for one day (pre-emergence) or after 8 days cultivation (post-emergence) under controlled conditions in a glasshouse (at 24/16° C., day/night; 14 hours light; 65% humidity), the plants were sprayed with an aqueous spray solution derived from the formulation of the technical active ingredient in acetone/water (50:50) solution containing 0.5% Tween 20 (polyoxyethelyene sorbitan monolaurate, CAS RN 9005-64-5). Compounds were applied at 250 g/ha. The test plants were then grown in a glasshouse under controlled conditions in a glasshouse (at 24/16° C., day/night; 14 hours light; 65% humidity) and watered twice daily. After 13 days for pre and post-emergence, the test was evaluated (100=total damage to plant; 0=no damage to plant).

[2] = system: Echinochloa crus-galli (ECHCG); assay: Herbicidal glasshouse test, pre-emergence; details: PRE Application, evaluated after 13 days; for pest or weed control at 250 g/ha: Echinochloa crus-galli, pre-emergence, 312 h, read-out: damage to plant (100=total damage to plant; 0=no damage to plant); for damage to plant (100=total damage to plant; 0=no damage to plant): 250 g/ha
Experimental: as §1

[3] = system: Abuthilon theophrasti (ABUTH); assay: Herbicidal glasshouse test, pre-emergence; details: PRE Application, evaluated after 13 days; for pest or weed control at 250 g/ha: Abutilon theophrasti, pre-emergence, 312 h, read-out: damage to plant (100=total damage to plant; 0=no damage to plant); for damage to plant (100=total damage to plant; 0=no damage to plant): 250 g/ha
Experimental: as §1

Setaria faberi (SETFA) [4] = assay: Herbicidal glasshouse test, pre-emergence; details: PRE Application, evaluated after 13 days; for pest or weed control at 250 g/ha: Setaria faberi, pre-emergence, 312 h, read-out: damage to plant (100=total damage to plant; 0=no damage to plant); for damage to plant (100=total damage to plant; 0=no damage to plant): 250 g/ha
Experimental: as §1

[5] = system: Alopecurus myosuroides (ALOMY); assay: Herbicidal glasshouse test, pre-emergence; details: PRE Application, evaluated after 13 days; for pest or weed control at 250 g/ha: Alopecurus myosuroides, pre-emergence, 312 h, read-out: damage to plant (100=total damage to plant; 0=no damage to plant); for damage to plant (100=total damage to plant; 0=no damage to plant): 250 g/ha
Experimental: as §1

[6] = system: Amaranthus retoflexus (AMARE); assay: Herbicidal glasshouse test, post-emergence; details: POST Application, evaluated after 13 days; for pest or weed control at 250 g/ha: Amaranthus retroflexus, post-emergence, 312 h, read-out: damage to plant (100=total damage to plant; 0=no damage to plant); for damage to plant (100=total damage to plant; 0=no damage to plant): 250 g/ha
Experimental: as §1

[7] = system: Echinochloa crus-galli (ECHCG); assay: Herbicidal glasshouse test, post-emergence; details: POST Application, evaluated after 13 days; for pest or weed control at 250 g/ha: Echinochloa crus-galli, post-emergence, 312 h, read-out: damage to plant (100=total damage to plant; 0=no damage to plant); for damage to plant (100=total damage to plant; 0=no damage to plant): 250 g/ha
Experimental: as §1

[8] = system: Abuthilon theophrasti (ABUTH); assay: Herbicidal glasshouse test, post-emergence; details: POST Application, evaluated after 13 days; for pest or weed control at 250 g/ha: Abutilon theophrasti, post-emergence, 312 h, read-out: damage to plant (100=total damage to plant; 0=no damage to plant); for damage to plant (100=total damage to plant; 0=no damage to plant): 250 g/ha
Experimental: as §1

Setaria faberi (SETFA) [9] = assay: Herbicidal glasshouse test, post-emergence; details: POST Application, evaluated after 13 days; for pest or weed control at 250 g/ha: Setaria faberi, post-emergence, 312 h, read-out: damage to plant (100=total damage to plant; 0=no damage to plant); for damage to plant (100=total damage to plant; 0=no damage to plant): 250 g/ha
Experimental: as §1

[10] = system: Alopecurus myosuroides (ALOMY); assay: Herbicidal glasshouse test, post-emergence; details: POST Application, evaluated after 13 days; for pest or weed control at 250 g/ha: Alopecurus myosuroides, post-emergence, 312 h, read-out: damage to plant (100=total damage to plant; 0=no damage to plant); for damage to plant (100=total damage to plant; 0=no damage to plant): 250 g/ha
Experimental: as §1

Row | Compound | pest or weed control at 250 g/ha [1] | pest or weed control at 250 g/ha [2] | pest or weed control at 250 g/ha [3] | pest or weed control at 250 g/ha (Setaria faberi (SETFA) [4]) | pest or weed control at 250 g/ha [5] | pest or weed control at 250 g/ha [6] | pest or weed control at 250 g/ha [7] | pest or weed control at 250 g/ha [8] | pest or weed control at 250 g/ha (Setaria faberi (SETFA) [9]) | pest or weed control at 250 g/ha [10] | damage to plant (100=total damage to plant; 0=no damage to plant) [1] | damage to plant (100=total damage to plant; 0=no damage to plant) [2] | damage to plant (100=total damage to plant; 0=no damage to plant) [3] | damage to plant (100=total damage to plant; 0=no damage to plant) (Setaria faberi (SETFA) [4]) | damage to plant (100=total damage to plant; 0=no damage to plant) [5] | damage to plant (100=total damage to plant; 0=no damage to plant) [6] | damage to plant (100=total damage to plant; 0=no damage to plant) [7] | damage to plant (100=total damage to plant; 0=no damage to plant) [8] | damage to plant (100=total damage to plant; 0=no damage to plant) (Setaria faberi (SETFA) [9]) | damage to plant (100=total damage to plant; 0=no damage to plant) [10]
1 | Cc1ccc2cc(C(=O)C3C(=O)CCCC3=O)c(=O)n(C)c2n1 [Compound 1.2, 2-(1,7-Dimethyl-2-oxo-1,2-dihydro[1,8]-naphthyridine-3-carbonyl)-cyclohexane-1,3-dione] | 40% | 90% | 70% | 70% | 20% | 80% | 80% | 80% | 80% | 40% | – | – | – | – | – | – | – | – | – | –
2 | Cn1c(=O)c(C(=O)C2C(=O)CCCC2=O)cc2cccnc21 [Compound 1.29] | 100% | 100% | 90% | 10% | 30% | 90% | 80% | 90% | 90% | 30% | – | – | – | – | – | – | – | – | – | –
3 | Cc1cc(C)c2cc(C(=O)C3C(=O)CCCC3=O)c(=O)n(C)c2n1 [Compound 1.42] | 0% | 0% | 0% | 0% | 0% | 70% | 70% | 50% | 60% | 0% | – | – | – | – | – | – | – | – | – | –
4 | COCn1c(=O)c(C(=O)C2C(=O)CCCC2=O)cc2cc(F)cnc21 [Compound 1.43] | 100% | 100% | 100% | 100% | 40% | 80% | 80% | 80% | 80% | 60% | – | – | – | – | – | – | – | – | – | –
5 | COCCn1c(=O)c(C(=O)C2C(=O)CCCC2=O)cc2cc(F)cnc21 [Compound 1.44] | 100% | 100% | 90% | 100% | 90% | 80% | 80% | 90% | 80% | 80% | – | – | – | – | – | – | – | – | – | –
6 | O=C1CCCC(=O)C1C(=O)c1cc2cc(F)cnc2n(CC(F)F)c1=O [Compound 1.45] | – | – | – | – | – | – | – | – | – | – | 100 | 100 | 100 | 80 | 70 | 80 | 80 | 80 | 80 | 60
7 | COCn1c(=O)c(C(=O)C2C(=O)CCCC2=O)cc2cc(F)c(C)nc21 [Compound 1.46] | 100% | 100% | 80% | 80% | 60% | 70% | 80% | 100% | 70% | 70% | – | – | – | – | – | – | – | – | – | –
8 | COCCn1c(=O)c(C(=O)C2C(=O)CCCC2=O)cc2cc(F)c(C)nc21 [Compound 1.47] | 100% | 90% | 90% | 90% | 50% | 70% | 90% | 70% | 80% | 80% | – | – | – | – | – | – | – | – | – | –
9 | O=C1CCCC(=O)C1C(=O)c1cc2cc(F)cnc2n(CCC=C(F)F)c1=O [Compound 1.48] | – | – | – | – | – | – | – | – | – | – | 100 | 100 | 90 | 90 | 80 | 40 | 80 | 80 | 80 | 70
10 | CCn1c(=O)c(C(=O)C2C(=O)CCCC2=O)cc2cc(F)cnc21 [Compound 1.49] | 100% | 100% | 90% | 90% | 60% | 70% | 80% | 80% | 70% | 70% | – | – | – | – | – | – | – | – | – | –
11 | CCCn1c(=O)c(C(=O)C2C(=O)CCCC2=O)cc2cc(F)cnc21 [Compound 1.50] | 90% | 100% | 90% | 100% | 80% | 70% | 80% | 80% | 80% | 70% | – | – | – | – | – | – | – | – | – | –
12 | Cn1c(=O)c(C(=O)C2C(=O)CCCC2=O)cc2ccc(Br)cc21 [Compound 3.42] | 80% | 70% | 50% | 0% | 10% | 80% | 80% | 90% | 70% | 20% | – | – | – | – | – | – | – | – | – | –
13 | O=C1CCCC(=O)C1C(=O)c1cc2cc(F)cnc2n(-c2cccc(C(F)(F)F)c2)c1=O [Compound 4.11] | – | – | – | – | – | – | – | – | – | – | 100 | 90 | 90 | 80 | 70 | 90 | 90 | 100 | 90 | 90
14 | O=C1CCCC(=O)C1C(=O)c1cc2cc(F)cnc2n(Cc2ccccc2F)c1=O [Compound 4.15] | – | – | – | – | – | – | – | – | – | – | 50 | 80 | 70 | 0 | 0 | 50 | 80 | 80 | 70 | 30
15 | O=C1CCCC(=O)C1C(=O)c1cc2cc(F)cnc2n(CCOc2ccccc2)c1=O [Compound 4.16] | 30% | 50% | 50% | 20% | 20% | 50% | 80% | 80% | 60% | 40% | – | – | – | – | – | – | – | – | – | –
